In patent publication US12723063B2, “GIPR-agonist compounds” (Eli Lilly and Company, priority 2019, dated 2026):
*1 amine or outer side, *2 acyl side, *3 side chain or, on linkers, in order; H or OH if unused. Where a SMILES comes first, the peptide text is derived from it. Side-chain parts run from the residue outwards. [ ]: non-standard residue; d: D form. The star is where a group is joined. C18 diacid = O=C(O)CCCCCCCCCCCCCCCCC(=O)*; γGlu = O=C(O)[C@H](CCC(=O)[*:2])N[*:1]; 4Pal = N[C@@H](Cc1ccncc1)C(=O)O; αMeL = CC(C)C[C@](C)(N)C(=O)O; Orn = NCCC[C@H](N)C(=O)O; AEEA = NCCOCCOCC(=O)O; Aib = CC(C)(N)C(=O)O

What was measured:
[1] = Pharmacokinetics in male cynomolgus monkeys, single subcutaneous administration; assay type: in vivo, cynomolgus monkey; conditions: 50 nmol/kg single SC, mean n = 2; for CL/F / Tmax / half-life: cynomolgus monkey, plasma
Experimental: The pharmacokinetics of select Examples are evaluated following a single subcutaneous administration of 50 nmol/kg to male cynomolgus monkeys. Blood samples are collected over 504 hours and resulting individual plasma concentrations are used to calculate pharmacokinetic parameters. Peptide plasma (K3 EDTA) concentrations are determined using a qualified LC/MS method that measured the intact mass of the compound. Each peptide and an analog as an internal standard are extracted from 100% cynomolgus monkey plasma using a protein precipitation method. Instruments are combined for LC/MS detection.

human GLP-1R = target: T1, human GLP-1R (Homo sapiens, UniProt P43220); assay: [125I]-GLP-1 binding, SPA with WGA beads, 0.1% bacitracin; conditions: geometric mean, read-out: hGLP1R Ki
T1 construct: expressed in transfected cells; crude membranes
T1 sequence (P43220 24-463): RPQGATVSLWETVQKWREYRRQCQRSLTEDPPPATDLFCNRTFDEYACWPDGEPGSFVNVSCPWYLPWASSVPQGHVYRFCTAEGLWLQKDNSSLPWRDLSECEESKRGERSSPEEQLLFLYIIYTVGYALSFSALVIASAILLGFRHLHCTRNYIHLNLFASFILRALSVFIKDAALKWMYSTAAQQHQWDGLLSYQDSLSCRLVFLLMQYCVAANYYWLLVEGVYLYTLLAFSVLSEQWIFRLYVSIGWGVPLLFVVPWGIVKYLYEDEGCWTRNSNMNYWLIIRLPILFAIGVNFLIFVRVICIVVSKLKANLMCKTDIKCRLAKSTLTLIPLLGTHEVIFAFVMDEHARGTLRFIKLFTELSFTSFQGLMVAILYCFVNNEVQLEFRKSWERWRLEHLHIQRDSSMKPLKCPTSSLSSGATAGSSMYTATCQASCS
In short: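 Binding buffer was 25 mM HEPES pH 7.4 with 2.5 mM CaCl2, 1 mM MgCl2, 0.1% (w/v) bacitracin, 0.003% Tween-20 and EDTA-free protease inhibitors. Four-parameter regression gave IC50, converted to Ki (geometric mean, SEM, n independent days).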

Row | SMILES | AUCInf/Dose [1] | Cmax/Dose [1] | CL/F [1] | Tmax [1] | half-life [1] | Ki (human GLP-1R)
1 | CC[C@H](C)[C@H](NC(=O)[C@H](CCCN)NC(=O)[C@H](CC(=O)O)NC(=O)[C@H](CC(C)C)NC(=O)[C@](C)(CC(C)C)NC(=O)[C@@H](NC(=O)[C@H](CO)NC(=O)[C@H](Cc1ccc(O)cc1)NC(=O)[C@H](CC(=O)O)NC(=O)[C@H](CO)NC(=O)[C@@H](NC(=O)[C@H](Cc1ccccc1)NC(=O)[C@@H](NC(=O)CNC(=O)[C@H](CCC(=O)O)NC(=O)C(C)(C)NC(=O)[C@@H](N)Cc1ccc(O)cc1)[C@@H](C)O)[C@@H](C)CC)[C@@H](C)CC)C(=O)N[C@@H](Cc1c[nH]cn1)C(=O)N[C@@H](CCC(N)=O)C(=O)NC(C)(C)C(=O)N[C@@H](CCC(=O)O)C(=O)N[C@@H](Cc1ccccc1)C(=O)N[C@H](C(=O)N[C@H](CCC(=O)O)C(=O)N[C@@H](Cc1ccc(O)cc1)C(=O)N[C@@H](CCCCNC(=O)COCCOCCNC(=O)COCCOCCNC(=O)CC[C@H](NC(=O)CCCCCCCCCCCCCCCCC(=O)O)C(=O)O)C(=O)N[C@@H](CC(C)C)C(=O)N[C@@H](CCC(=O)O)C(=O)NCC(=O)NCC(=O)N1CCC[C@H]1C(=O)N[C@@H](CO)C(=O)N[C@@H](CO)C(=O)NCC(=O)N[C@@H](C)C(=O)N1CCC[C@H]1C(=O)N1CCC[C@H]1C(=O)N1CCC[C@H]1C(=O)N[C@@H](CO)C(N)=O)C(C)C [Example 7] | 1603 hr*kg*nmol/L/nmol | 10.1 kg*nmol/L/nmol | 15.1 mL/day/kg | 9 h | 109 h | > 913 nM
2 | CC[C@H](C)[C@H](NC(=O)[C@H](Cc1ccccc1)NC(=O)[C@@H](NC(=O)CNC(=O)[C@H](CCC(=O)O)NC(=O)C(C)(C)NC(=O)[C@@H](N)Cc1ccc(O)cc1)[C@@H](C)O)C(=O)N[C@@H](CO)C(=O)N[C@@H](CC(=O)O)C(=O)N[C@@H](Cc1ccc(O)cc1)C(=O)N[C@@H](CO)C(=O)N[C@H](C(=O)N[C@@](C)(CC(C)C)C(=O)N[C@@H](CC(C)C)C(=O)N[C@@H](CC(=O)O)C(=O)N[C@@H](CCCN)C(=O)N[C@@H](CCCCNC(=O)COCCOCCNC(=O)COCCOCCNC(=O)CC[C@H](NC(=O)CCCCCCCCCCCCCCCCCCC(=O)O)C(=O)O)C(=O)N[C@@H](Cc1c[nH]cn1)C(=O)N[C@@H](CCC(N)=O)C(=O)NC(C)(C)C(=O)N[C@@H](CC(=O)O)C(=O)N[C@@H](Cc1ccccc1)C(=O)N[C@H](C(=O)N[C@@H](CCC(=O)O)C(=O)N[C@@H](Cc1ccncc1)C(=O)N[C@@H](CC(C)C)C(=O)N[C@@H](CC(C)C)C(=O)N[C@@H](CCC(=O)O)C(=O)N[C@@H](C)C(=O)NCC(=O)N1CCC[C@H]1C(=O)N[C@@H](CO)C(=O)N[C@@H](CO)C(=O)NCC(=O)N[C@@H](C)C(=O)N1CCC[C@H]1C(=O)N1CCC[C@H]1C(=O)N1CCC[C@H]1C(=O)N[C@@H](CO)C(N)=O)C(C)C)[C@@H](C)CC [Example 4] | 1387 hr*kg*nmol/L/nmol | 8.71 kg*nmol/L/nmol | 17.3 mL/day/kg | 6 h | 124 h | 423 nM
3 | CC[C@H](C)[C@H](NC(=O)[C@H](CO)NC(=O)[C@H](Cc1ccc(O)cc1)NC(=O)[C@H](CC(=O)O)NC(=O)[C@H](CO)NC(=O)[C@@H](NC(=O)[C@H](Cc1ccccc1)NC(=O)[C@@H](NC(=O)CNC(=O)[C@H](CCC(=O)O)NC(=O)[C@@H](C)NC(=O)[C@@H](N)Cc1ccc(O)cc1)[C@@H](C)O)[C@@H](C)CC)C(=O)N[C@@H](CC(C)C)C(=O)N[C@@H](CC(C)C)C(=O)N[C@@H](CC(=O)O)C(=O)N[C@@H](CCCCN)C(=O)N[C@@H](CCCCNC(=O)COCCOCCNC(=O)COCCOCCNC(=O)CC[C@H](NC(=O)CCCCCCCCCCCCCCCCC(=O)O)C(=O)O)C(=O)N[C@@H](C)C(=O)N[C@@H](CCC(N)=O)C(=O)NC(C)(C)C(=O)N[C@@H](CC(=O)O)C(=O)N[C@@H](Cc1ccccc1)C(=O)N[C@H](C(=O)N[C@@H](CC(N)=O)C(=O)N[C@@H](Cc1c[nH]c2ccccc12)C(=O)N[C@@H](CC(C)C)C(=O)N[C@@H](CC(C)C)C(=O)N[C@@H](C)C(=O)NCC(=O)NCC(=O)N1CCC[C@H]1C(=O)N[C@@H](CO)C(=O)N[C@@H](CO)C(=O)NCC(=O)N[C@@H](C)C(=O)N1CCC[C@H]1C(=O)N1CCC[C@H]1C(=O)N1CCC[C@H]1C(=O)N[C@@H](CO)C(N)=O)C(C)C [Example 19] (H-Y[dA]EGTFISDYSILLDKK([AEEA-AEEA-γGlu-C18 diacid])AQ[Aib]DFVNWLLAGGPSSGAPPPS-NH2) | – | – | – | – | – | 15.2 nM
4 | CC[C@H](C)[C@H](NC(=O)[C@H](Cc1ccccc1)NC(=O)[C@@H](NC(=O)CNC(=O)[C@H](CCC(=O)O)NC(=O)C(C)(C)NC(=O)[C@@H](N)Cc1ccc(O)cc1)[C@@H](C)O)C(=O)N[C@@H](CO)C(=O)N[C@@H](CC(=O)O)C(=O)N[C@@H](Cc1ccc(O)cc1)C(=O)N[C@@H](CO)C(=O)N[C@H](C(=O)N[C@@](C)(CC(C)C)C(=O)N[C@@H](CC(C)C)C(=O)N[C@@H](CC(=O)O)C(=O)N[C@@H](CCCN)C(=O)N[C@@H](CCCCNC(=O)COCCOCCNC(=O)COCCOCCNC(=O)CC[C@H](NC(=O)CCCCCCCCCCCCCCCCC(=O)O)C(=O)O)C(=O)N[C@@H](Cc1c[nH]cn1)C(=O)N[C@@H](CCC(N)=O)C(=O)NC(C)(C)C(=O)N[C@@H](CC(=O)O)C(=O)N[C@@H](Cc1ccccc1)C(=O)N[C@H](C(=O)N[C@@H](CCC(=O)O)C(=O)N[C@@H](Cc1ccncc1)C(=O)N[C@@H](CC(C)C)C(=O)N[C@@H](CC(C)C)C(=O)N[C@@H](CCC(=O)O)C(=O)N[C@@H](C)C(=O)NCC(=O)N1CCC[C@H]1C(=O)N[C@@H](CO)C(=O)N[C@@H](CO)C(=O)NCC(=O)N[C@@H](C)C(=O)N1CCC[C@H]1C(=O)N1CCC[C@H]1C(=O)N1CCC[C@H]1C(=O)N[C@@H](CO)C(N)=O)C(C)C)[C@@H](C)CC [Example 87] (H-Y[Aib]EGTFISDYSI[αMeL]LD[Orn]K([AEEA-AEEA-γGlu-C18 diacid])HQ[Aib]DFVE[4Pal]LLEAGPSSGAPPPS-NH2) | – | – | – | – | – | 849 nM
5 | CC[C@H](C)[C@H](NC(=O)[C@H](CO)NC(=O)[C@H](Cc1ccc(O)cc1)NC(=O)[C@H](CC(=O)O)NC(=O)[C@H](CO)NC(=O)[C@@H](NC(=O)[C@H](Cc1ccccc1)NC(=O)[C@@H](NC(=O)CNC(=O)[C@H](CCC(=O)O)NC(=O)[C@@H](C)NC(=O)[C@@H](N)Cc1ccc(O)cc1)[C@@H](C)O)[C@@H](C)CC)C(=O)N[C@@H](CC(C)C)C(=O)N[C@@H](CC(C)C)C(=O)N[C@@H](CC(=O)O)C(=O)N[C@@H](CCCCN)C(=O)N[C@@H](CCCCNC(=O)COCCOCCNC(=O)COCCOCCNC(=O)CC[C@H](NC(=O)CCCCCCCCCCCCCCCCC(=O)O)C(=O)O)C(=O)N[C@@H](C)C(=O)N[C@@H](CCC(N)=O)C(=O)NC(C)(C)C(=O)N[C@@H](CC(=O)O)C(=O)N[C@@H](Cc1ccccc1)C(=O)N[C@H](C(=O)N[C@@H](CCC(=O)O)C(=O)N[C@@H](Cc1c[nH]c2ccccc12)C(=O)N[C@@H](CC(C)C)C(=O)N[C@@H](CC(C)C)C(=O)N[C@@H](C)C(=O)N[C@@H](CCC(N)=O)C(=O)NCC(=O)N1CCC[C@H]1C(=O)N[C@@H](CO)C(=O)N[C@@H](CO)C(=O)NCC(=O)N[C@@H](C)C(=O)N1CCC[C@H]1C(=O)N1CCC[C@H]1C(=O)N1CCC[C@H]1C(=O)N[C@@H](CO)C(N)=O)C(C)C [Example 16] (H-Y[dA]EGTFISDYSILLDKK([AEEA-AEEA-γGlu-C18 diacid])AQ[Aib]DFVEWLLAQGPSSGAPPPS-NH2) | – | – | – | – | – | 99.2 nM
